{
  "source": "patent US20260174766A1",
  "about": "“COMBINATION OF MENIN INHIBITOR(S) AND IMMUNOPROTEASOME INHIBITOR(S) FOR TREATMENT OF LEUKEMIA” (Medizinische Hochschule Hannover, priority 2022, published 2026)",
  "system": "AML1-ETO",
  "test": "Methylcellulose colony-forming assay, AML1-ETO transduced murine cells",
  "type": "cell-based, mouse",
  "details": "100 nM or 200 nM; FIG. 2A right panel",
  "method": "Primary mouse bone marrow (BM) cells (transduced with MLL-AF9/KRAS, MLL-AF6, or AML1-ETO/KRAS) were seeded in MethoCult GF M3434 (StemCell Technologies) at a concentration of 1×10^3 cells/replicate. Colonies propagated in culture were scored at day 8. For re-plating of primary mouse BM cells, colonies were harvested from the methylcellulose medium, washed with PBS/1% FBS and seeded again at a concentration of 1×10^3 cells/replicate. MOLM-13 or ML-2 cells infected with either control or PSMB8/LMP7-specific shRNAs were plated at a concentration of 1×10^3 cells in MethoCult H4230 (StemCell Technologies) supplemented with 20% FBS and colony numbers were counted on day 10-14.",
  "data": [
    {"smiles": "COc1ccc(C[C@H](NC(=O)[C@H](C)NC(=O)CN2CCOCC2)C(=O)N[C@@H](Cc2ccccc2)C(=O)[C@]2(C)CO2)cc1", "note": "[PR-957, (2S)-3-(4-methoxyphenyl)-N-[(2S)-1-[(2S)-2-methyloxiran-2-yl]-1-oxo-3-phenylpropan-2-yl]-2-[[(2S)-2-[(2-morpholin-4-ylacetyl)amino]propanoyl]amino]propanamide]", "values": [
      {"measurement": "reduction of clonogenic potential, non-MLL fusion oncogene AML1-ETO", "value": "not detectable"}
    ]}
  ]
}
